# From US20140031278A1, “Novel Glucagon Analogues” (NOVO NORDISK A/S, priority 2011, published 2014)
# *1 amine or outer side, *2 acyl side, *3 side chain or, on linkers, in order; H or OH if unused. Where a SMILES comes first, the peptide text is derived from it. Side-chain parts run from the residue outwards. γGlu = O=C(O)[C@H](CCC(=O)[*:2])N[*:1]
# Target: T1, glucagon receptor (Homo sapiens, UniProt P47871)
# T1 construct: expressed in transfected cells
# Experiment: Assay (I) Glucagon activity (cAMP biosensor, FLIPR)
# Type: cell-based
# Conditions: HEK-293 cells with cloned glucagon receptor and cAMP biosensor; end point after 6 minutes
# How it was run: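 HEK-293 cells expressing glucagon receptor with membrane cAMP biosensor (ACTOne), calcium-dye loaded with probenecid and a PDE inhibitor.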
# T1 sequence (P47871 26-477): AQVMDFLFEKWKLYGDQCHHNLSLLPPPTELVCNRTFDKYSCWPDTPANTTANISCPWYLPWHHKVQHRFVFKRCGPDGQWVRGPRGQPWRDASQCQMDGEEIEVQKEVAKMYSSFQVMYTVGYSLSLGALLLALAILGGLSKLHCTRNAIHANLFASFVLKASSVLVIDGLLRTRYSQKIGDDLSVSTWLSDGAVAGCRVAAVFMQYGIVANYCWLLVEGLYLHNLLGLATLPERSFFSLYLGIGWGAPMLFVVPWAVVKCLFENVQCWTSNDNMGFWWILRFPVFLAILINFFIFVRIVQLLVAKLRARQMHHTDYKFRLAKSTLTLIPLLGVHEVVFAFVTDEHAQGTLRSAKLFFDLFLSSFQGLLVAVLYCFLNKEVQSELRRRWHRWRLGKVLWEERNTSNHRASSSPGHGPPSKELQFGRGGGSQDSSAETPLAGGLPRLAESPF
row,EC50,Structure (SMILES)
1,0.027 nM,"CC(=O)N[C@@H](CCC(=O)N[C@@H](CCC(=O)N[C@@H](CCC(=O)N[C@@H](CCC(=O)NCCCC[C@H](NC(=O)[C@@H](NC(=O)[C@H](Cc1ccccc1)NC(=O)[C@H](CCC(=O)O)NC(=O)[C@H](CCC(N)=O)NC(=O)[C@H](C)NC(=O)[C@H](CCCNC(=N)N)NC(=O)[C@H](CCCNC(=N)N)NC(=O)[C@H](CO)NC(=O)[C@H](CCC(=O)O)NC(=O)[C@H](CC(C)C)NC(=O)[C@H](Cc1ccc(O)cc1)NC(=O)[C@H](CCCCN)NC(=O)[C@H](CO)NC(=O)[C@@H](NC(=O)[C@H](CC(=O)O)NC(=O)[C@H](CO)NC(=O)[C@@H](NC(=O)[C@H](Cc1ccccc1)NC(=O)[C@@H](NC(=O)CNC(=O)[C@H](CCC(N)=O)NC(=O)[C@H](CO)NC(=O)[C@@H](N)Cc1c[nH]cn1)[C@@H](C)O)[C@@H](C)O)C(C)C)C(C)C)C(=O)N[C@@H](Cc1c[nH]c2ccccc12)C(=O)N[C@@H](CC(C)C)C(=O)N[C@@H](CC(C)C)C(=O)N[C@@H](CO)C(=O)N[C@H](C(=O)O)[C@@H](C)O)C(=O)O)C(=O)O)C(=O)O)C(=O)O [Example 45, N^ε24-[(4S)-4-[[(4S)-4-[[(4S)-4-[[(4S)-4-acetamido-4-carboxybutanoyl]amino]-4-carboxybutanoyl]amino]-4-carboxybutanoyl]amino]-4-carboxybutanoyl]-[Val^10,Glu^15,Glu^21,Lys^24,Leu^27,Ser^28]-Glucagon] (H-HSQGTFTSDVSKYLESRRAQEFVK([γGlu-γGlu-γGlu-γGlu-Ac])WLLST-OH)"
2,0.009 nM,"CC(=O)N[C@@H](CCC(=O)N[C@@H](CCC(=O)N[C@@H](CCC(=O)N[C@@H](CCC(=O)NCCCC[C@H](NC(=O)[C@@H](NC(=O)[C@H](Cc1ccccc1)NC(=O)[C@H](CCC(=O)O)NC(=O)[C@H](C)NC(=O)[C@H](C)NC(=O)[C@H](CCCNC(=N)N)NC(=O)[C@H](CCCNC(=N)N)NC(=O)[C@@H](NC(=O)[C@H](CC(=O)O)NC(=O)[C@H](CC(C)C)NC(=O)[C@H](Cc1ccc(O)cc1)NC(=O)[C@H](CCCCN)NC(=O)[C@H](CO)NC(=O)[C@H](Cc1ccc(O)cc1)NC(=O)[C@H](CC(=O)O)NC(=O)[C@H](CO)NC(=O)[C@@H](NC(=O)[C@H](Cc1ccccc1)NC(=O)[C@@H](NC(=O)CNC(=O)[C@H](Cc1c[nH]cn1)NC(=O)[C@H](C)NC(=O)[C@@H](N)Cc1c[nH]cn1)[C@@H](C)O)[C@@H](C)O)C(C)C)C(C)C)C(=O)N[C@@H](Cc1c[nH]c2ccccc12)C(=O)N[C@@H](CC(C)C)C(=O)N[C@@H](CC(C)C)C(=O)N[C@@H](CO)C(=O)N[C@H](C(=O)O)[C@@H](C)O)C(=O)O)C(=O)O)C(=O)O)C(=O)O [Example 47, N^ε24-[(4S)-4-[[(4S)-4-[[(4S)-4-[[(4S)-4-acetamido-4-carboxybutanoyl]amino]-4-carboxybutanoyl]amino]-4-carboxybutanoyl]amino]-4-carboxybutanoyl]-[Ala^2,His^3,Val^16,Ala^20,Glu^21,Lys^24,Leu^27,Ser^28]-Glucagon] (H-HAHGTFTSDYSKYLDVRRAAEFVK([γGlu-γGlu-γGlu-γGlu-Ac])WLLST-OH)"
3,0.054 nM,"CC(=O)N[C@@H](CCC(=O)N[C@@H](CCC(=O)N[C@@H](CCC(=O)N[C@@H](CCC(=O)NCCCC[C@H](NC(=O)[C@@H](NC(=O)[C@H](Cc1ccccc1)NC(=O)[C@H](CCC(=O)O)NC(=O)[C@H](C)NC(=O)[C@H](C)NC(=O)[C@H](CCCNC(=N)N)NC(=O)[C@H](CCCNC(=N)N)NC(=O)[C@@H](NC(=O)[C@H](CC(=O)O)NC(=O)[C@H](CC(C)C)NC(=O)[C@H](Cc1ccc(O)cc1)NC(=O)[C@H](CCCCN)NC(=O)[C@H](CO)NC(=O)[C@H](Cc1ccc(O)cc1)NC(=O)[C@H](CC(=O)O)NC(=O)[C@H](CO)NC(=O)[C@@H](NC(=O)[C@H](Cc1ccccc1)NC(=O)[C@@H](NC(=O)CNC(=O)[C@H](CCC(N)=O)NC(=O)CNC(=O)[C@@H](N)Cc1c[nH]cn1)[C@@H](C)O)[C@@H](C)O)C(C)C)C(C)C)C(=O)N[C@@H](Cc1c[nH]c2ccccc12)C(=O)N[C@@H](CC(C)C)C(=O)N[C@@H](CC(C)C)C(=O)N[C@@H](CO)C(=O)N[C@H](C(=O)O)[C@@H](C)O)C(=O)O)C(=O)O)C(=O)O)C(=O)O [Example 49, N^ε24-[(4S)-4-[[(4S)-4-[[(4S)-4-[[(4S)-4-acetamido-4-carboxybutanoyl]amino]-4-carboxybutanoyl]amino]-4-carboxybutanoyl]amino]-4-carboxybutanoyl]-[Gly^2,Val^16,Ala^20,Glu^21,Lys^24,Leu^27,Ser^28]-Glucagon] (H-HGQGTFTSDYSKYLDVRRAAEFVK([γGlu-γGlu-γGlu-γGlu-Ac])WLLST-OH)"
4,0.153 nM,"CC(=O)N[C@@H](CCC(=O)N[C@@H](CCC(=O)N[C@@H](CCC(=O)N[C@@H](CCC(=O)NCCCC[C@H](NC(=O)[C@@H](NC(=O)[C@H](Cc1ccccc1)NC(=O)[C@H](CCC(=O)O)NC(=O)[C@H](C)NC(=O)[C@H](C)NC(=O)[C@H](CCCNC(=N)N)NC(=O)[C@H](CCCNC(=N)N)NC(=O)[C@@H](NC(=O)[C@H](CC(=O)O)NC(=O)[C@H](CC(C)C)NC(=O)[C@H](Cc1ccc(O)cc1)NC(=O)[C@H](CCCCN)NC(=O)[C@H](CO)NC(=O)[C@@H](NC(=O)[C@H](CC(=O)O)NC(=O)[C@H](CO)NC(=O)[C@@H](NC(=O)[C@H](Cc1ccccc1)NC(=O)[C@@H](NC(=O)CNC(=O)[C@H](Cc1c[nH]cn1)NC(=O)CNC(=O)[C@@H](N)Cc1c[nH]cn1)[C@@H](C)O)[C@@H](C)O)C(C)C)C(C)C)C(C)C)C(=O)N[C@@H](Cc1c[nH]c2ccccc12)C(=O)N[C@@H](CC(C)C)C(=O)N[C@@H](CC(C)C)C(=O)N[C@@H](CO)C(=O)N[C@H](C(=O)O)[C@@H](C)O)C(=O)O)C(=O)O)C(=O)O)C(=O)O [Example 50, N^ε24-[(4S)-4-[[(4S)-4-[[(4S)-4-[[(4S)-4-acetamido-4-carboxybutanoyl]amino]-4-carboxybutanoyl]amino]-4-carboxybutanoyl]amino]-4-carboxybutanoyl]-[Gly^2,His^3,Val^10,Val^16,Ala^20,Glu^21,Lys^24,Leu^27,Ser^28]-Glucagon] (H-HGHGTFTSDVSKYLDVRRAAEFVK([γGlu-γGlu-γGlu-γGlu-Ac])WLLST-OH)"
5,0.007 nM,"CC(=O)N[C@@H](CCC(=O)N[C@@H](CCC(=O)N[C@@H](CCC(=O)N[C@@H](CCC(=O)NCCCC[C@H](NC(=O)[C@@H](NC(=O)[C@H](CO)NC(=O)[C@H](CC(C)C)NC(=O)[C@H](CC(C)C)NC(=O)[C@H](Cc1c[nH]c2ccccc12)NC(=O)[C@H](CCC(N)=O)NC(=O)[C@@H](NC(=O)[C@H](Cc1ccccc1)NC(=O)[C@H](CC(=O)O)NC(=O)[C@H](CCC(N)=O)NC(=O)[C@H](C)NC(=O)[C@H](CCCNC(=N)N)NC(=O)[C@H](CCCNC(=N)N)NC(=O)[C@H](CO)NC(=O)[C@H](CC(=O)O)NC(=O)[C@H](CC(C)C)NC(=O)[C@H](Cc1ccc(O)cc1)NC(=O)[C@H](CCCCN)NC(=O)[C@H](CO)NC(=O)[C@H](Cc1ccc(O)cc1)NC(=O)[C@H](CC(=O)O)NC(=O)[C@H](CO)NC(=O)[C@@H](NC(=O)[C@H](Cc1ccccc1)NC(=O)[C@@H](NC(=O)CNC(=O)[C@H](CCC(N)=O)NC(=O)[C@H](CO)NC(=O)[C@@H](N)Cc1c[nH]cn1)[C@@H](C)O)[C@@H](C)O)C(C)C)[C@@H](C)O)C(=O)O)C(=O)O)C(=O)O)C(=O)O)C(=O)O [Example 51, N^α([Leu^27,Ser^28]-Glucagonyl)-N^ε[(4S)-4-[[(4S)-4-[[(4S)-4-[[(4S)-4-acetamido-4-carboxybutanoyl]amino]-4-carboxybutanoyl]amino]-4-carboxybutanoyl]amino]-4-carboxybutanoyl]Lys]"
6,0.01 nM,"CC(=O)N[C@@H](CCC(=O)N[C@@H](CCC(=O)N[C@@H](CCC(=O)N[C@@H](CCC(=O)NCCCC[C@H](NC(=O)[C@H](CO)NC(=O)[C@H](CC(C)C)NC(=O)[C@H](CC(C)C)NC(=O)[C@H](Cc1c[nH]c2ccccc12)NC(=O)[C@H](CCC(N)=O)NC(=O)[C@@H](NC(=O)[C@H](Cc1ccccc1)NC(=O)[C@H](CC(=O)O)NC(=O)[C@H](CCC(N)=O)NC(=O)[C@H](C)NC(=O)[C@H](CCCNC(=N)N)NC(=O)[C@H](CCCNC(=N)N)NC(=O)[C@H](CO)NC(=O)[C@H](CC(=O)O)NC(=O)[C@H](CC(C)C)NC(=O)[C@H](Cc1ccc(O)cc1)NC(=O)[C@H](CCCCN)NC(=O)[C@H](CO)NC(=O)[C@H](Cc1ccc(O)cc1)NC(=O)[C@H](CC(=O)O)NC(=O)[C@H](CO)NC(=O)[C@@H](NC(=O)[C@H](Cc1ccccc1)NC(=O)[C@@H](NC(=O)CNC(=O)[C@H](CCC(N)=O)NC(=O)[C@H](CO)NC(=O)[C@@H](N)Cc1c[nH]cn1)[C@@H](C)O)[C@@H](C)O)C(C)C)C(=O)O)C(=O)O)C(=O)O)C(=O)O)C(=O)O [Example 52, N^ε^29-[(4S)-4-[[(4S)-4-[[(4S)-4-[[(4S)-4-acetamido-4-carboxybutanoyl]amino]-4-carboxybutanoyl]amino]-4-carboxybutanoyl]amino]-4-carboxybutanoyl]-[Leu^27,Ser^28,Lys^29]-Glucagon]"

row,Structure (SMILES),EC50
1,"CC(=O)N[C@@H](CCC(=O)N[C@@H](CCC(=O)N[C@@H](CCC(=O)N[C@@H](CCC(=O)NCCCC[C@H](NC(=O)[C@@H](NC(=O)[C@H](Cc1ccccc1)NC(=O)[C@H](CCC(=O)O)NC(=O)[C@H](C)NC(=O)[C@H](C)NC(=O)[C@H](CCCNC(=N)N)NC(=O)[C@H](CCCNC(=N)N)NC(=O)[C@@H](NC(=O)[C@H](CC(=O)O)NC(=O)[C@H](CC(C)C)NC(=O)[C@H](Cc1ccc(O)cc1)NC(=O)[C@H](CCCCN)NC(=O)[C@H](CO)NC(=O)[C@H](Cc1ccc(O)cc1)NC(=O)[C@H](CC(=O)O)NC(=O)[C@H](CO)NC(=O)[C@@H](NC(=O)[C@H](Cc1ccccc1)NC(=O)[C@@H](NC(=O)CNC(=O)[C@H](Cc1c[nH]cn1)NC(=O)CNC(=O)[C@@H](N)Cc1c[nH]cn1)[C@@H](C)O)[C@@H](C)O)C(C)C)C(C)C)C(=O)N[C@@H](Cc1c[nH]c2ccccc12)C(=O)N[C@@H](CC(C)C)C(=O)N[C@@H](CC(C)C)C(=O)N[C@@H](CO)C(=O)N[C@H](C(=O)O)[C@@H](C)O)C(=O)O)C(=O)O)C(=O)O)C(=O)O [Example 46, N^ε24-[(4S)-4-[[(4S)-4-[[(4S)-4-[[(4S)-4-acetamido-4-carboxybutanoyl]amino]-4-carboxybutanoyl]amino]-4-carboxybutanoyl]amino]-4-carboxybutanoyl]-[Gly^2,His^3,Val^16,Ala^2°,Glu^21,Lys^24,Leu^27,Ser^28]-Glucagon] (H-HGHGTFTSDYSKYLDVRRAAEFVK([γGlu-γGlu-γGlu-γGlu-Ac])WLLST-OH)",0.024 nM
